pKi: −log10 of the molar value. Counter-ions that a name gives are not always drawn.
Legend:
Human 5-HT6 receptor = molecular target: T1, Human 5-HT6 receptor (Homo sapiens, UniProt P50406); test: Binding assay for human 5-HT6 receptor ([3H] LSD radioligand); settings: [3H] LSD 1.5 nM, human recombinant receptor in HEK293 cells; for inhibition at 0.1 µM: read-out: % Inhibition of specific binding at 100 nM
T1 construct: expressed in transfected cells; host or cells: HEK293
Method: Binding Assay for Human 5-HT6 Receptor
Compounds can be tested according to the following the procedures. Materials and Methods:
Receptor source: Human recombinant expressed in HEK293 cells
Radioligand: [^3H] LSD (60-80 Ci/mmol)
Final ligand concentration—[1.5 nM]
Non-specific determinant: Methiothepin mesylate—[0.1 μM]
Reference compound: Methiothepin mesylate
Positive control: Methiothepin mesylate
Reactions were carried out in […] TRIS-HCl (pH 7.4) containing 10 μM MgCl2, 0.5 mM EDTA for 60 minutes at 37° C. The reaction was terminated by rapid vacuum filtration onto glass fiber filters. Radioactivity trapped onto the filters was determined and compared to control values in order to ascertain any interactions of test compound(s) with the cloned serotonin 5-HT6binding site.
Literature Reference: Monsma F. J. Jr., et al., Molecular Cloning and Expression of Novel Serotonin Receptor with High Affinity for Tricyclic Psychotropic Drugs. Mol. Pharmacol. (43): 320-327 (1993).

T1 sequence (P50406 whole entry): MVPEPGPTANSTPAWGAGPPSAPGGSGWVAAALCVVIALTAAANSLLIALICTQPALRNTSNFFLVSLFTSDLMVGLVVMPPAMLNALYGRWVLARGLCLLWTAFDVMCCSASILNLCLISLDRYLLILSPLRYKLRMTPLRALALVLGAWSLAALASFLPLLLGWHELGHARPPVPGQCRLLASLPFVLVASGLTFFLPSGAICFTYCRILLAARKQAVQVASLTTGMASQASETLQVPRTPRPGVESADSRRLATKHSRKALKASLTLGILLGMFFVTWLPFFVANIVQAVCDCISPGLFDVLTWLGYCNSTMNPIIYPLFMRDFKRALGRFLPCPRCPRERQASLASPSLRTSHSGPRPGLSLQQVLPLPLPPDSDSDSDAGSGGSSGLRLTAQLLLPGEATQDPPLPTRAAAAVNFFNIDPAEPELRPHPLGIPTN

Row | SMILES | inhibition at 0.1 µM (Human 5-HT6 receptor; 100 nM test compound) | melting point | pKi (Human 5-HT6 receptor) | % Inhibition of specific binding at 100 nM (Human 5-HT6 receptor; 100 nM test compound)
1 | CCN1CCN(Cc2cc(S(=O)(=O)n3ccc4cc(Br)ccc43)ccc2Cl)CC1.Cl.Cl [Example 29, 1-[4-Chloro-3-(4-ethylpiperazin-1-ylmethyl)benzenesulfonyl]-5-bromo-1H-indole dihydrochloride] | 71.8% | 208.6 to 212.8 °C | – | –
2 | Cc1cn(S(=O)(=O)c2ccc(Br)c(CN3CCN(C)CC3)c2)c2ccccc12.Cl.Cl [Example 38, 1-[4-Bromo-3-(4-methylpiperazin-1-ylmethyl)benzenesulfonyl]-3-methyl-1H-indole dihydrochloride] | – | 210.5 to 213 °C | 8.04 | –
3 | CCN1CCN(Cc2cc(S(=O)(=O)n3cc(C)c4ccccc43)ccc2Br)CC1.Cl.Cl [Example 39, 1-[4-Bromo-3-(4-ethylpiperazin-1-ylmethyl)benzenesulfonyl]-3-methyl-1H-indole dihydrochloride] | 91.5% | 204.1 to 206.5 °C | – | –
4 | CCOc1ccc2c(ccn2S(=O)(=O)c2cccc(CN3CCN(C)CC3)c2)c1 [Example 11, 5-Ethoxy-1-[3-(4-methylpiperazin-1-ylmethyl)benzenesulfonyl]-1H-indole] | 63.7% | – | – | –
5 | COc1ccc2c(c1)c(C)cn2S(=O)(=O)c1ccc(Br)c(CN2CCN(C)CC2)c1.Cl.Cl | – | 214.3 to 215.7 °C | – | –
6 | Cc1cn(S(=O)(=O)c2ccc(Cl)c(CN3CCCN(C)CC3)c2)c2ccccc12 [Example 46, 1-[4-Chloro-3-(4-methyl[1,4]diazepan-1-ylmethyl)benzenesulfonyl]-3-methyl-1H-indole dihydrochloride] | 92.2% | – | – | –
7 | COc1ccc2c(c1)c(C)cn2S(=O)(=O)c1ccc(C)c(CN2CCN(C)CC2)c1.Cl.Cl | – | 190.32 °C | – | –
8 | CCN1CCN(Cc2cc(S(=O)(=O)n3ccc4cc(OC)ccc43)ccc2C)CC1.Cl.Cl | – | 160.94 °C | – | –
9 | CCN1CCN(Cc2cc(S(=O)(=O)n3ccc4cc(F)ccc43)ccc2C)CC1.Cl.Cl [Example 44, 1-[4-Methyl-3-(4-ethylpiperazin-1-ylmethyl)benzenesulfonyl]-5-fluoro-1H-indole dihydrochloride] | 78.5% | 203.4 to 206.2 °C | – | –
10 | CN1CCN(Cc2cc(S(=O)(=O)n3ccc4cc(Br)ccc43)ccc2Br)CC1.Cl.Cl | – | 208.2 to 209.2 °C | – | –
11 | COc1ccc2c(c1)c(C)cn2S(=O)(=O)c1ccc(Cl)c(CN2CCN(C)CC2)c1.Cl.Cl | – | 213.3 to 214.2 °C | – | –
12 | CCN1CCN(Cc2cc(S(=O)(=O)n3cc(C)c4cc(OC)ccc43)ccc2Br)CC1.Cl.Cl | – | 211.3 to 212.1 °C | – | –
13 | CCN1CCN(Cc2cc(S(=O)(=O)n3ccc4cc(OC)ccc43)ccc2Cl)CC1.Cl.Cl [Example 18, 1-[4-Chloro-3-(4-ethylpiperazin-1-ylmethyl)benzenesulfonyl]-5-methoxy-1H-indole dihydrochloride] | 55.7% | 209.5 to 211 °C | – | –
14 | CN1CCN(Cc2cc(S(=O)(=O)n3ccc4cc(F)ccc43)ccc2Cl)CC1.Cl.Cl [Example 14, 1-[4-Chloro-3-(4-methylpiperazin-1-ylmethyl)benzenesulfonyl]-5-fluoro-1H-indole dihydrochloride] | 73% | 220.2 to 221.3 °C | – | –
15 | CCN1CCCN(Cc2cc(S(=O)(=O)n3cc(C)c4ccccc43)ccc2Cl)CC1 [Example 45, 1-[4-Chloro-3-(4-ethyl-[1,4]diazepan-1-ylmethyl)benzenesulfonyl]-3-methyl-1H-indole dihydrochloride] | 98.5% | – | – | –
16 | CCN1CCN(Cc2cc(S(=O)(=O)n3ccc4cc(F)ccc43)ccc2Br)CC1 [Example 4, 1-[4-Bromo-3-(4-ethylpiperazin-1-ylmethyl)benzenesulfonyl]-5-fluoro-1H-indole] | 62.5% | 92.2 to 93.9 °C | – | –
17 | COc1ccc2c(c1)c(Br)cn2S(=O)(=O)c1ccc(Cl)c(CN2CCN(C)CC2)c1.Cl.Cl | – | 195.4 to 199.3 °C | – | –
18 | CCN1CCN(Cc2cc(S(=O)(=O)n3ccc4c(Cl)cccc43)ccc2Cl)CC1.Cl.Cl [Example 19, 1-[4-Chloro-3-(4-ethylpiperazin-1-ylmethyl)benzenesulfonyl]-4-chloro-1H-indole dihydrochloride] | 82% | 205.9 to 207.2 °C | – | –
19 | CN1CCN(Cc2cc(S(=O)(=O)n3ccc4ccccc43)ccc2Br)CC1.Cl.Cl [Example 21, 1-[4-Bromo-3-(4-methylpiperazin-1-ylmethyl)benzenesulfonyl]-1H-indole dihydrochloride] | 88.8% | 214.1 to 216 °C | – | –

Row | SMILES | inhibition at 0.1 µM (Human 5-HT6 receptor; 100 nM test compound) | melting point | pKi (Human 5-HT6 receptor) | % Inhibition of specific binding at 100 nM (Human 5-HT6 receptor; 100 nM test compound)
20 | COc1ccc2c(ccn2S(=O)(=O)c2ccc(Cl)c(CN3CCN(C)CC3)c2)c1.Cl.Cl [Example 16, 1-[4-Chloro-3-(4-methylpiperazin-1-ylmethyl)benzenesulfonyl]-5-methoxy-1H-indole dihydrochloride] | 42% | 208.8 to 210.2 °C | – | –
21 | CCN1CCN(Cc2cc(S(=O)(=O)n3ccc4cc(F)ccc43)ccc2Cl)CC1.Cl.Cl [Example 25, 1-[4-Chloro-3-(4-ethylpiperazin-1-ylmethyl)benzenesulfonyl]-5-fluoro-1H-indole dihydrochloride] | 64.8% | 204.1 to 205.5 °C | – | –
22 | COc1ccc2c(ccn2S(=O)(=O)c2cccc(CN3CCN(C)CC3)c2)c1 [Example 9, 5-Methoxy-1-[3-(4-methylpiperazin-1-ylmethyl)benzenesulfonyl]-1H-indole] | 67.6% | – | – | –
23 | CCN1CCN(Cc2cc(S(=O)(=O)n3ccc4ccccc43)ccc2Cl)CC1.Cl.Cl [Example 15, 1-[4-Chloro-3-(4-ethylpiperazin-1-ylmethyl)benzenesulfonyl]-1H-indole dihydrochloride] | – | 196 to 197.1 °C | 7.74 | –
24 | CCN1CCN(Cc2cc(S(=O)(=O)n3cc(C)c4cc(OC)ccc43)ccc2Cl)CC1.Cl.Cl [Example 30, 1-[4-Chloro-3-(4-ethylpiperazin-1-ylmethyl)benzenesulfonyl]-5-methoxy-3-methyl-1H-indole dihydrochloride] | 68% | 217.5 to 220.8 °C | – | –
25 | CN1CCN(Cc2cc(S(=O)(=O)n3cc(Br)c4cc(F)ccc43)ccc2Cl)CC1 [Example 5, 1-[4-Chloro-3-(4-methylpiperazin-1-ylmethyl)benzenesulfonyl]-5-fluoro-3-bromo-1H-indole] | – | 161.3 to 162.6 °C | – | –
26 | CCN1CCN(Cc2cc(S(=O)(=O)n3cc(C)c4cc(OC)ccc43)ccc2C)CC1.Cl.Cl | – | 226.99 °C | – | –
27 | CCN1CCN(Cc2cc(S(=O)(=O)n3ccc4ccccc43)ccc2Br)CC1 [Example 1, 1-1-[4-Bromo-3-(4-ethylpiperazin-1-ylmethyl)benzenesulfonyl]-1H-indole] | – | – | – | 78.91%
28 | CN1CCN(Cc2cccc(S(=O)(=O)n3ccc4cc(F)ccc43)c2)CC1 [Example 10, 5-Fluoro-1-[3-(4-methylpiperazin-1-ylmethyl)benzenesulfonyl]-1H-indole] | 79.2% | – | – | –
29 | CN1CCN(Cc2cc(S(=O)(=O)n3ccc4ccccc43)ccc2Cl)CC1.Cl.Cl [Example 13, 1-[4-Chloro-3-(4-methylpiperazin-1-ylmethyl)benzenesulfonyl]-1H-indole dihydrochloride] | 83.3% | 210.6 to 213.9 °C | – | –
30 | COc1ccc2c(ccn2S(=O)(=O)c2ccc(Br)c(CN3CCN(C)CC3)c2)c1 [Example 2, 1-[4-Bromo-3-(4-methylpiperazin-1-ylmethyl)benzenesulfonyl]-5-methoxy-1H-indole] | – | 115.2 to 120 °C | – | –
31 | CN1CCN(Cc2cc(S(=O)(=O)n3ccc4cc(F)ccc43)ccc2Br)CC1.Cl.Cl | – | 219.4 to 221.6 °C | – | –
32 | CN1CCN(Cc2cc(S(=O)(=O)n3ccc4cc(Br)ccc43)ccc2Cl)CC1.Cl.Cl | – | 214.7 to 215.6 °C | – | –
33 | COc1ccc2c(ccn2S(=O)(=O)c2ccc(C)c(CN3CCN(C)CC3)c2)c1.Cl.Cl [Example 24, 1-[4-methyl-3-(4-methylpiperazin-1-ylmethyl)benzenesulfonyl]-5-methoxy-1H-indole dihydrochloride] | 62.2% | 198.1 to 199.3 °C | – | –
34 | CCN1CCN(Cc2cc(S(=O)(=O)n3cc(C)c4ccccc43)ccc2Cl)CC1.Cl.Cl | – | 218.9 to 220.5 °C | – | –
35 | CN1CCN(Cc2cc(S(=O)(=O)n3ccc4c(Cl)cccc43)ccc2Cl)CC1.Cl.Cl [Example 20, 1-[4-Chloro-3-(4-methylpiperazin-1-ylmethyl)benzenesulfonyl]-4-chloro-1H-indole dihydrochloride] | 85.2% | 242.7 to 244.3 °C | – | –
36 | CCN1CCN(Cc2cc(S(=O)(=O)n3cc(Br)c4cc(OC)ccc43)ccc2Cl)CC1.Cl.Cl | – | 216.9 to 219.7 °C | – | –
37 | CCN1CCN(Cc2cc(S(=O)(=O)n3ccc4cc(Br)ccc43)ccc2Br)CC1.Cl.Cl [Example 37, 1-[4-Bromo-3-(4-ethylpiperazin-1-ylmethyl)benzenesulfonyl]-5-bromo-1H-indole dihydrochloride] | 55.9% | 205.1 to 207.1 °C | – | –
38 | CCN1CCN(Cc2cc(S(=O)(=O)n3ccc4cc(OC)ccc43)ccc2Br)CC1 [Example 3, 1-[4-Bromo-3-(4-ethylpiperazin-1-ylmethyl)benzenesulfonyl]-5-methoxy-1H-indole] | 50.5% | 196.1 to 198.6 °C | – | –
